Source: PMC9033141, “Beta and Gamma Amino Acid-Substituted Benzenesulfonamides as Inhibitors of Human Carbonic Anhydrases” (Pharmaceuticals, 2022)
Where two headings read alike, the source gives them in different places.

Legend:
CAI = target: T1, CAI (Homo sapiens, UniProt P00915); experiment: biochemical; assay type: binding; conditions: FTSA, pH 7.0, 37 °C; read-out: Observed Dissociation Constant (Kd_obs), CAI
T1 construct: made in house; host or cells: E. coli
Method: (§1) Human CA isozymes were expressed in E. coli (CAI, II, III, IV, VA, VB, VII, XII, XIII, XIV) or mammalian cells (CAVI and CAIX), chromatographically purified following the published protocols [47], and stored at −80 °C. The protein concentration was determined by UV absorption at 280 nm using Beer–Lambert law.
(§2) The QIAGEN Rotor-Gene Q was used to carry out the experiments, with a blue channel used for excitation (365 nm) and detection (460 nm). FTSA in this case relies on an extrinsic probe, 8-anilino-1-naphthalenesulfonate (ANS), to detect the fluorescence increase during protein denaturation, from which protein melting temperature (Tm) can be determined. […] The observed affinity of ligands for CAs was determined by plotting the Tm as a function of ligand concentration and then fitting a curve as described previously [48]. […] Samples were heated from 25 °C to 99 °C at the speed of 1 °C/min.
(§3) The intrinsic thermodynamic parameters were calculated as described in [40]. The intrinsic reaction of inhibitor binding to CA is shown in Equation (1).
(§4) When calculating Kd_int values, these protein and ligand fractions from Equation (1) have to be accounted for (Equations (2) and (3)). The intrinsic dissociation constant is calculated by multiplying Kd_obs value by the corresponding fractions of protein and ligand (Equation (4)). (2) fRSO2NH^−=10^pH−pKa_RSO2NH2/1+10^pH−pKa_RSO2NH2 (3) fCAZnH2O=1−10^pH−pKa_CAZnH2O/1+10^pH−pKa_CAZnH2O (4) Kd_int=Kd_obs×fRSO2NH^−×fCAZnH2O (5) ΔGint0=RTlnKd_int
(§5) The intrinsic standard Gibbs energy changes upon binding were calculated using Equation (5). Here, R—universal ideal gas constant (8.3144 J/mol·K), T—absolute temperature (310.15 K).

CAII = target: T2, CAII (Homo sapiens, UniProt P00918); experiment: biochemical; assay type: binding; conditions: FTSA, pH 7.0, 37 °C; read-out: Observed Dissociation Constant (Kd_obs), CAII
T2 construct: made in house; host or cells: E. coli
Method: as §1, §2, §3, §4, §5

CAIII = target: T3, CAIII (Homo sapiens, UniProt P07451); experiment: Fluorescent thermal shift assay (FTSA), CAIII; assay type: binding; conditions: FTSA, pH 7.0, 37 °C; read-out: Observed Dissociation Constant (Kd_obs), CAIII
T3 construct: made in house; host or cells: E. coli
Method: as §1, §2
(§6) The intrinsic thermodynamic parameters were calculated as described in [40]. The intrinsic reaction of inhibitor binding to CA is shown in Equation (1). […] It is known that CA proteins bind sulfonamides only when water molecules are coordinated to the Zn(II) ion, and sulfonamides only bind to CA proteins when their amino group is deprotonated (confirmed by neutron crystallography [53, 54, 55]):(1) CA Zn^II−H2O+RSO2NH^−⇄ CA Zn^II−NH SO2R+H2O
as §4, §5

CAIV = target: T4, CAIV (Homo sapiens, UniProt P22748); experiment: Fluorescent thermal shift assay (FTSA), CAIV; assay type: binding; conditions: FTSA, pH 7.0, 37 °C; read-out: Observed Dissociation Constant (Kd_obs), CAIV;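 note: recombinant human enzyme, thermal denaturation followed by ANS fluorescence, melting temperature versus ligand concentration fitted for Kd_obs, intrinsic value corrected for deprotonated sulfonamide and Zn-bound water fractions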
T4 construct: made in house; host or cells: E. coli
Method: as §1, §2, §6, §4, §5

CAVA = target: T5, CAVA (Homo sapiens, UniProt P35218); experiment: Fluorescent thermal shift assay (FTSA), CAVA; assay type: binding; conditions: FTSA, pH 7.0, 37 °C; read-out: Observed Dissociation Constant (Kd_obs), CAVA
T5 construct: made in house; host or cells: E. coli
Method: as §1, §2, §6, §4, §5

CAVB = target: T6, CAVB (Homo sapiens, UniProt Q9Y2D0); experiment: Fluorescent thermal shift assay (FTSA), CAVB; assay type: binding; conditions: FTSA, pH 7.0, 37 °C; read-out: Observed Dissociation Constant (Kd_obs), CAVB
T6 construct: made in house; host or cells: E. coli
Method: as §1, §2, §6, §4, §5

CAVI = target: T7, CAVI (Homo sapiens, UniProt P23280); experiment: Fluorescent thermal shift assay (FTSA), CAVI; assay type: binding; conditions: FTSA, pH 7.0, 37 °C; read-out: Observed Dissociation Constant (Kd_obs), CAVI;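 note: human CAVI expressed in mammalian cells, ANS fluorescence tracked during thermal unfolding, melting temperature fitted against ligand concentration, intrinsic values corrected for deprotonated sulfonamide and Zn-bound water fractions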
T7 construct: made in house
Method: as §1, §2, §6, §4, §5

CAVII = target: T8, CAVII (Homo sapiens, UniProt P43166); experiment: Fluorescent thermal shift assay (FTSA), CAVII; assay type: binding; conditions: FTSA, pH 7.0, 37 °C
T8 construct: made in house; host or cells: E. coli
Method: as §1, §2, §6, §4, §5

CAIX = target: T9, CAIX (Homo sapiens, UniProt Q16790); experiment: biochemical; assay type: binding; conditions: FTSA, pH 7.0, 37 °C
T9 construct: made in house
Method: as §1, §2, §3, §4, §5

CAXII = target: T10, CAXII (Homo sapiens, UniProt O43570); experiment: biochemical; assay type: binding; conditions: FTSA, pH 7.0, 37 °C; read-out: Observed Dissociation Constant (Kd_obs), CAXII
T10 construct: made in house; host or cells: E. coli
Method: as §1, §2, §3, §4, §5

CAXIV = target: T11, CAXIV (Homo sapiens, UniProt Q9ULX7); experiment: Fluorescent thermal shift assay (FTSA), CAXIV; assay type: binding; conditions: FTSA, pH 7.0, 37 °C; read-out: Observed Dissociation Constant (Kd_obs), CAXIV;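 note: recombinant human CA XIV from E. coli, ANS-based thermal shift: Kd_obs fitted from melting temperature versus ligand concentration, ΔGint from Kd_obs corrected for deprotonated sulfonamide and Zn-water fractions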
T11 construct: made in house; host or cells: E. coli
Method: as §1, §2, §6, §4, §5

CAXIII = CAXIII (Homo sapiens, UniProt Q8N1Q1); experiment: biochemical; conditions: Observed Dissociation Constant (Kd_obs), FTSA, pH 7.0, 37 °C;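 note: recombinant human CAXIII melting temperature tracked by ANS fluorescence in thermal shift assay, Tm fitted against ligand concentration, intrinsic value corrects Kd for deprotonated sulfonamide and Zn-bound water fractions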
Method: as §1, §2, §3, §4, §5

[1] = read-out: Observed Dissociation Constant (Kd_obs), CAIX
[2] = Observed Dissociation Constant (Kd_obs), CAIX
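Throughout, for Observed Dissociation Constant (Kd obs), CAXII: recombinant CAXII made in E. coli, ANS-fluorescence thermal shift with affinity fitted from Tm versus ligand concentration, intrinsic energy from Kd_obs corrected for deprotonated sulfonamide and Zn-water fractions.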

Sequence of CAXIII (Q8N1Q1 whole entry): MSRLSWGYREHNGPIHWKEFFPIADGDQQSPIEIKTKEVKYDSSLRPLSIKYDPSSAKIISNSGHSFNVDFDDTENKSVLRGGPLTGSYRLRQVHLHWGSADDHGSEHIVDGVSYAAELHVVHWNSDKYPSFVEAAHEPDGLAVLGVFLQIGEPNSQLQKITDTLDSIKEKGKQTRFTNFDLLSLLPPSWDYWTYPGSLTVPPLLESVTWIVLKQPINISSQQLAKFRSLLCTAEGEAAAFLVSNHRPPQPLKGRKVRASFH
T1 sequence (P00915 whole entry): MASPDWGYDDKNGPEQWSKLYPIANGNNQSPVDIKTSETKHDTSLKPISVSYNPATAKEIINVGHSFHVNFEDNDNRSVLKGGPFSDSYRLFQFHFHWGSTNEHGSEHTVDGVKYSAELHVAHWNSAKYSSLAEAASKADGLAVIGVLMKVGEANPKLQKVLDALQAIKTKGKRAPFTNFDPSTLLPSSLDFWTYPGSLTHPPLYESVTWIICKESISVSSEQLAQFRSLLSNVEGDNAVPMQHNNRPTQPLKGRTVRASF
T10 sequence (O43570 25-354): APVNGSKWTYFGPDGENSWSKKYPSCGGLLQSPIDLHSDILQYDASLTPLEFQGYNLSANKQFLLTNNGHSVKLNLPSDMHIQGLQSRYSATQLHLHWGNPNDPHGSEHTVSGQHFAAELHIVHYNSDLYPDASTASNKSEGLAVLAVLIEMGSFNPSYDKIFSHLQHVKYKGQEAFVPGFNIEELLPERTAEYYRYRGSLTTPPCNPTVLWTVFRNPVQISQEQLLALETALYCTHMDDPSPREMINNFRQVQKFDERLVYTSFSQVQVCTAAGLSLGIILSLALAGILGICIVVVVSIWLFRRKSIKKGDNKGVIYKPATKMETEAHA
T7 sequence (P23280 21-290 limits assumed): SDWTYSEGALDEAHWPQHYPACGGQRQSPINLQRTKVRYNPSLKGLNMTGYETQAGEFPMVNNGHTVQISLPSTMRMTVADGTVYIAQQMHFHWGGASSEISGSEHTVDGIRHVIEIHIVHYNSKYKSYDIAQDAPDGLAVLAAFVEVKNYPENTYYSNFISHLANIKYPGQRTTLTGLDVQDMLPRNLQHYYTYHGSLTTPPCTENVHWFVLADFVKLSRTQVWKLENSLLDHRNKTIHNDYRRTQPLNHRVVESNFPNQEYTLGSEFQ
T6 sequence (Q9Y2D0 34-317): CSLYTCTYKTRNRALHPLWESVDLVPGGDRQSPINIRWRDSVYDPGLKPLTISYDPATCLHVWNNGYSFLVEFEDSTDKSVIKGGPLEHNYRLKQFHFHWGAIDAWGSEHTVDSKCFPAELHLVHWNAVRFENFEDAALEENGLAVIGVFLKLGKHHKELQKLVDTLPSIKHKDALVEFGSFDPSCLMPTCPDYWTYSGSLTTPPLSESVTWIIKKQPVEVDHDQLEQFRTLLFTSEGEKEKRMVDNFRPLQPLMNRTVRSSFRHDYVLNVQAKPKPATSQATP
T4 sequence (P22748 19-312): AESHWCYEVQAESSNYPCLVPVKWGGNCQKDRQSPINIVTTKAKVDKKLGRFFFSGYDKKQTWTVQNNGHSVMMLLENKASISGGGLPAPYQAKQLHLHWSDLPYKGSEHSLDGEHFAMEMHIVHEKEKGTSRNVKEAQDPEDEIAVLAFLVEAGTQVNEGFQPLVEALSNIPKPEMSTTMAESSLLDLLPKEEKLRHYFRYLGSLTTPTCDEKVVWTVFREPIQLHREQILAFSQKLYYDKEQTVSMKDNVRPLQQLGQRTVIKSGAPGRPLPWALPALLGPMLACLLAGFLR
T11 sequence (Q9ULX7 16-337): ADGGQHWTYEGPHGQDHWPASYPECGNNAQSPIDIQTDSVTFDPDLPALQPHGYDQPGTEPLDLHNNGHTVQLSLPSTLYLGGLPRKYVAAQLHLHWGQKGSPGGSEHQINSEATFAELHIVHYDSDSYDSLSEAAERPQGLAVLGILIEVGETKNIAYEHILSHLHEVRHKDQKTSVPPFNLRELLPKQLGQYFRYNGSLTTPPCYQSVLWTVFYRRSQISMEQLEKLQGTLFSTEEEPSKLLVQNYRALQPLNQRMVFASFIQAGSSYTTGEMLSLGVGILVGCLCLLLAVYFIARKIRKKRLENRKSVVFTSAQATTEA
T5 sequence (P35218 39-305): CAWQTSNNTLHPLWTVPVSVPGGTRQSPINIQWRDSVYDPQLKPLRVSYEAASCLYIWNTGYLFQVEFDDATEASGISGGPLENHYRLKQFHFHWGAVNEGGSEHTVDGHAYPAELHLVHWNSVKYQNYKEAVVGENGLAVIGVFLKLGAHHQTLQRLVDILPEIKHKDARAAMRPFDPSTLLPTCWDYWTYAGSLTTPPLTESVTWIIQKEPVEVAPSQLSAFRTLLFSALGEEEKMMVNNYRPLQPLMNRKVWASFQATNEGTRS
T8 sequence (P43166 whole entry): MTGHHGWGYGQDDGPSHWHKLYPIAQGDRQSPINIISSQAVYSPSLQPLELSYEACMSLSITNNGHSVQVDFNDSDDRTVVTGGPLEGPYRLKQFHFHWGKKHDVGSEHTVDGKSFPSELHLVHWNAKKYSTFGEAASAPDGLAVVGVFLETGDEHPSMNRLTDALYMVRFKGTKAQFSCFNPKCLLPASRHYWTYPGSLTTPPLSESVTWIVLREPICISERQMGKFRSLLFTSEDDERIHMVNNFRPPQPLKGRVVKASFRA
T3 sequence (P07451 whole entry): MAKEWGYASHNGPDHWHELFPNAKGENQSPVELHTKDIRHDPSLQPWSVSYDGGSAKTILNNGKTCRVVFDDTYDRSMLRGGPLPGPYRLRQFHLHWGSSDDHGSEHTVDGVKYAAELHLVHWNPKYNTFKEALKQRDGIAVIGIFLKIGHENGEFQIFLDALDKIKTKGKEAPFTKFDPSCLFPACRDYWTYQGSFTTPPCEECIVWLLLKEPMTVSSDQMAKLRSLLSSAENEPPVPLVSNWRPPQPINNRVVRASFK

SMILES | Kd (CAI) [nM] | Kd (CAII) [nM] | Kd (CAIII) [nM] | Kd (CAIV) [nM] | Kd (CAVA) [nM] | Kd (CAVB) [nM] | Kd (CAVI) [nM] | Kd (CAVII; read-out: Observed Dissociation Constant (Kd_obs), CAVII) [nM] | Kd (CAIX; [1]) [nM] | Kd (CAXII) [nM] | Kd (CAXIV) [nM] | melting point [°C] | Kd (CAXIII) [nM] | Kd (CAVII; Observed Dissociation Constant (Kd_obs), CAVII) [nM] | Kd (CAIX; [2]) [nM]
NS(=O)(=O)c1ccc(NCC(CC(=O)NN=Cc2ccccc2)C(=O)NN=Cc2ccccc2)c(Cl)c1 (centres unmarked) [Compound 6b, 4-((2-(2-(Benzylidene)hydrazine-1-carbonyl)-4-(2-(benzylidene)hydrazineyl)-4-oxobutyl)amino)-3-chlorobenzenesulfonamide] | 1400 | 240 | ≥ 200000 | 4200 | 20000 | 130 | 670 | 290 | 100 | 7900 | 140 | 212 to 213 | 180 |  | 
NS(=O)(=O)c1ccc(NCC(CC(=O)NN=Cc2ccc(O)cc2)C(=O)NN=Cc2ccc(O)cc2)c(Cl)c1 (centres unmarked) [Compound 9b, 3-Chloro-4-((2-(2-(4-hydroxybenzylidene)hydrazine-1-carbonyl)-4-(2-(4-hydroxybenzylidene)hydrazineyl)-4-oxobutyl)amino)benzenesulfonamide] | 670 | 200 | ≥ 200000 | 1000 | 2900 | 830 | 670 |  | 100 | 14000 | 130 | 226 to 227 | 250 | 250 | 
NS(=O)(=O)c1ccc(NCC(CC(=O)NN=Cc2ccc(F)cc2)C(=O)NN=Cc2ccc(F)cc2)cc1 (centres unmarked) [Compound 13a, 4-((2-(2-(4-Fluorobenzylidene)hydrazine-1-carbonyl)-4-(2-(4-fluorobenzylidene)hydrazineyl)-4-oxobutyl)amino)benzenesulfonamide] | 22000 | 2900 |  |  |  |  |  |  | 1400 | 23000 |  | 153 to 154 | 20000 |  | 
NS(=O)(=O)c1ccc(NCC(CC(=O)NN=Cc2ccc(F)cc2)C(=O)NN=Cc2ccc(F)cc2)c(Cl)c1 (centres unmarked) [Compound 13b, 3-Chloro-4-((2-(2-(4-fluorobenzylidene)hydrazine-1-carbonyl)-4-(2-(4-fluorobenzylidene)hydrazineyl)-4-oxobutyl)amino)benzenesulfonamide] | 2600 | 390 |  |  |  |  |  |  |  | 23000 |  | 207 to 208 | 340 |  | 330
COc1ccc(C=NNC(=O)CC(CNc2ccc(S(N)(=O)=O)cc2)C(=O)NN=Cc2ccc(OC)cc2)cc1 (centres unmarked) [Compound 14a, 4-((2-(2-(4-Methoxybenzylidene)hydrazine-1-carbonyl)-4-(2-(4-methoxybenzylidene)hydrazineyl)-4-oxobutyl)amino)benzenesulfonamide] | 32000 | 3400 |  |  |  |  |  |  | 1400 | 38000 |  | 168 to 169 | 23000 |  | 
COc1ccc(C=NNC(=O)CC(CNc2ccc(S(N)(=O)=O)cc2Cl)C(=O)NN=Cc2ccc(OC)cc2)cc1 (centres unmarked) [Compound 14b, 3-Chloro-4-((2-(2-(4-methoxybenzylidene)hydrazine-1-carbonyl)-4-(2-(4-methoxybenzylidene)hydrazineyl)-4-oxobutyl)amino)benzenesulfonamide] | 510 | 59 |  |  |  |  |  |  | 290 | 10000 |  | 198 to 199 | 66 |  | 
NS(=O)(=O)c1ccc(NCC(CC(=O)NN=Cc2ccccc2[N+](=O)[O-])C(=O)NN=Cc2ccccc2[N+](=O)[O-])cc1 (centres unmarked) [Compound 15a, 4-((2-(2-(2-Nitrobenzylidene)hydrazine-1-carbonyl)-4-(2-(2-nitrobenzylidene)hydrazineyl)-4-oxobutyl)amino)benzenesulfonamide] | 13000 | 3300 |  |  |  |  |  |  | 1000 | 50000 |  | 197 to 198 | 6700 |  | 
NS(=O)(=O)c1ccc(NCC(CC(=O)NN=Cc2ccccc2[N+](=O)[O-])C(=O)NN=Cc2ccccc2[N+](=O)[O-])c(Cl)c1 (centres unmarked) [Compound 15b, 3-Chloro-4-((2-(2-(2-nitrobenzylidene)hydrazine-1-carbonyl)-4-(2-(2-nitrobenzylidene)hydrazineyl)-4-oxobutyl)amino)benzenesulfonamide] | 2500 | 500 |  |  |  |  |  |  | 140 | 50000 |  | 178 to 179 | 400 |  | 
NS(=O)(=O)c1ccc(NCC(CC(=O)NN=Cc2cccc([N+](=O)[O-])c2)C(=O)NN=Cc2cccc([N+](=O)[O-])c2)cc1 (centres unmarked) [Compound 16a, 4-((2-(2-(3-Nitrobenzylidene)hydrazine-1-carbonyl)-4-(2-(3-nitrobenzylidene)hydrazineyl)-4-oxobutyl)amino)benzenesulfonamide] | 20000 | 4000 |  |  |  |  |  |  | 1400 | 50000 |  | 218 to 219 | 14000 |  | 
NS(=O)(=O)c1ccc(NCC(CC(=O)NN=Cc2cccc([N+](=O)[O-])c2)C(=O)NN=Cc2cccc([N+](=O)[O-])c2)c(Cl)c1 (centres unmarked) [Compound 16b, 3-Chloro-4-((2-(2-(3-nitrobenzylidene)hydrazine-1-carbonyl)-4-(2-(3-nitrobenzylidene)hydrazineyl)-4-oxobutyl)amino)benzenesulfonamide] | 3300 | 500 |  |  |  |  |  |  | 130 | 130000 |  | 199 to 200 | 1000 |  | 
NS(=O)(=O)c1ccc(NCC(CC(=O)NN=Cc2ccc([N+](=O)[O-])cc2)C(=O)NN=Cc2ccc([N+](=O)[O-])cc2)cc1 (centres unmarked) [Compound 17a, 4-((2-(2-(4-Nitrobenzylidene)hydrazine-1-carbonyl)-4-(2-(4-nitrobenzylidene)hydrazineyl)-4-oxobutyl)amino)benzenesulfonamide] | 36000 | 5400 |  |  |  |  |  |  | 3300 | 79000 |  | 256 to 257 | 19000 |  | 
NS(=O)(=O)c1ccc(NCC(CC(=O)NN=Cc2ccc([N+](=O)[O-])cc2)C(=O)NN=Cc2ccc([N+](=O)[O-])cc2)c(Cl)c1 (centres unmarked) [Compound 17b, 3-Chloro-4-((2-(2-(4-nitrobenzylidene)hydrazine-1-carbonyl)-4-(2-(4-nitrobenzylidene)hydrazineyl)-4-oxobutyl)amino)benzenesulfonamide] | 2600 | 570 |  |  |  |  |  |  |  | 58000 |  | 220 to 221 | 1400 |  | 1400
Cc1ccc(C)n1NC(=O)CC(CNc1ccc(S(N)(=O)=O)cc1)C(=O)Nn1c(C)ccc1C (centres unmarked) [Compound 19a, N^1,N^4-bis(2,5-Dimethyl-1H-pyrrol-1-yl)-2-(((4-sulfamoylphenyl)amino)methyl)succinamide] | 10000 | 1700 |  |  |  |  |  |  | 560 | 10000 |  | 195 to 196 | 4000 |  | 
NS(=O)(=O)c1ccc(NCC(CC(=O)NNC(=S)Nc2ccccc2)C(=O)NNC(=S)Nc2ccccc2)cc1 (centres unmarked) [Compound 23a, 2,2′-(2-(((4-Sulfamoylphenyl)amino)methyl)succinyl)bis(N-phenylhydrazine-1-carbothioamide)] | 4000 | 2000 |  |  |  |  |  |  | 130 | 2200 |  | 136 to 137 | 10000 |  | 
Cn1c(CC(CNc2ccc(S(N)(=O)=O)cc2)c2n[nH]c(=S)n2C)n[nH]c1=S (centres unmarked) [Compound 24a, 4-((2,3-bis(4-Methyl-5-thioxo-4,5-dihydro-1H-1,2,4-triazol-3-yl)propyl)amino)benzenesulfonamide] | 43000 | 6700 |  |  |  |  |  |  | 910 | 3300 |  | 170 to 171 | 19000 |  | 
Cn1c(CC(CNc2ccc(S(N)(=O)=O)cc2Cl)c2n[nH]c(=S)n2C)n[nH]c1=S (centres unmarked) [Compound 24b, 4-((2,3-bis(4-Methyl-5-thioxo-4,5-dihydro-1H-1,2,4-triazol-3-yl)propyl)amino)-3-chlorobenzenesulfonamide] | 2900 | 250 |  |  |  |  |  |  | 59 | 1700 |  | 151 to 152 | 1300 |  | 
NS(=O)(=O)c1ccc(NCC(Cc2n[nH]c(=S)n2-c2ccccc2)c2n[nH]c(=S)n2-c2ccccc2)cc1 (centres unmarked) [Compound 25a, 4-((2,3-bis(4-Phenyl-5-thioxo-4,5-dihydro-1H-1,2,4-triazol-3-yl)propyl)amino)benzenesulfonamide] | 100000 | 3300 |  |  |  |  |  |  | 100 | 4000 |  | 258 to 259 | 25000 |  | 
